Patent US20240102016A1, “APPLICATION OF VEGFR GENE EXPRESSION INHIBITOR IN PREPARING PREPARATION OR AS PREPARATION FOR TREATING PSORIASIS” (priority 2022, published 2024)

What was measured:
Assay type in all cases: in vivo
[1] = system: RASGRP1 downstream pathway; assay: Western blot of RASGRP1 downstream pathway proteins in skin tissues of psoriatic mice; conditions: skin smeared with SU5205; compared with the IMQ-induced mice
Excerpt: (§1) In the embodiment of the disclosure, psoriatic mice coated with VEGFR inhibitors are constructed as follows: dissolving the VEGFR inhibitor SU5205 in dimethyl sulfoxide (DMSO) solution to prepare stock solution, diluting the stock solution with cyclodextrin, and coating the stock solution with a concentration of […] (referred to a daily dosage per kilogram of body weight of the psoriatic mice) on the psoriatic mice. 7-8-week wild-type mice are taken with back hair shaved and an exposed skin area of 2 cm×2 cm. 150 μL of the VEGFR inhibitor solution is coated on the skin surface. The normal control mice are coated with control reagent (with 150 μL of DMSO and cyclodextrin). The psoriatic mice and the normal control mice are respectively coated with Imiquimod (IMQ) cream or control reagent VAS on the exposed skin in 4 h later of the above operation.
In the embodiment of the disclosure, the psoriatic mice subcutaneously injected with VEGF are constructed as follows: dissolving VEGF165 protein in DMSO solution to prepare stock solution, diluting the stock solution with cyclodextrin, and smearing the mice with the stock solution with a concentration of […]. 7-8-week wild-type mice are taken with back hair shaved and an exposed skin area of 2 cm×2 cm. 100 μL of the VEGF165 solution is injected subcutaneously the skin surface of the mice. The normal control mice are injected with control reagent subcutaneously (with 100 μL of DMSO and cyclodextrin). The psoriatic mice subcutaneously injected with VEGF165, and the normal control mice are respectively smeared IMQ cream or control reagent VAS on the exposed skin in 4 h later of the injections.

[2] = system: IMQ-induced psoriatic mice; assay: H&E staining of skin sections and PASI scores in IMQ-induced psoriatic mice; conditions: skin smeared with SU5205, 10 kg/kg/d, 150 μL, 4 h before IMQ cream; compared with the IMQ-induced mice
Excerpt: as §1
(§2) In the embodiment of the disclosure, the psoriatic mice subcutaneously injected with VEGF are constructed as follows: dissolving VEGF165 protein in DMSO solution to prepare stock solution, diluting the stock solution with cyclodextrin, and smearing the mice with the stock solution with a concentration of […]. 7-8-week wild-type mice are taken with back hair shaved and an exposed skin area of 2 cm×2 cm. 100 μL of the VEGF165 solution is injected subcutaneously the skin surface of the mice. […]

[3] = system: RASGRP1+T cells and IL-17A+T cells; assay: Flow cytometry of RASGRP1+T cells and IL-17A+T cells in skin tissues of psoriatic mice; conditions: skin smeared with SU5205
Excerpt: as §1, §2

Compound: O=C1Nc2ccccc2/C1=C/c1ccc(F)cc1 [SU5205]
- active protein level of IL-1β in skin tissues [1]: significantly lower
- active protein level of NF-κB in skin tissues [1]: significantly reduced
- active protein level of phosphorylated AKT in skin tissues [1]: significantly reduced
- psoriasis phenotypes (dorsal skin thickness, erythema, scaling; H&E staining and PASI scores) [2]: significantly reduced
- IL-17A+T cells in skin tissues [3]: decrease significantly
- Rasgrp1+T cells in skin tissues [3]: decrease significantly
